Values of other authors as cited in patent US6830897B2, “High throughput screen for reducing drug candidate attrition” (Pfizer Inc., priority 2000, dated 2004).

conditions: toxicities linked to formation of reactive metabolites; literature reference in brackets

Row | Compound | Toxicity (Ref.)
1 | COc1ccc(O)cc1 [4-hydroxyanisole] | Hepato- toxicity (15)
2 | CC(C)c1ccc(O)cc1 [4-isopropylphenol] | Circulatory collapse, death (16)
3 | CC(=O)Nc1ccc(O)cc1 [Acetaminophen] | Hepato- toxicity (11)
4 | NC(=O)N1c2ccccc2C=Cc2ccccc21 [Carbamazepine] | Hyper- sensitivity (13)
5 | CN1CCN(C2=Nc3cc(Cl)ccc3Nc3ccccc32)CC1 [Clozapine] | Neutrophil Cyto-toxicity (12)
6 | COc1ccc2c(c1)c(CC(=O)O)c(C)n2C(=O)c1ccc(Cl)cc1 [Indomethacin] | Neutrophil toxicity (14)
7 | O=C1NC(=O)C(c2ccccc2)(c2ccccc2)N1 [Phenytoin] | Hepato- toxicity (18)
8 | CCCC(CCC)C(=O)O [Valproic acid] | Hepato- toxicity (17)
9 | Cc1cccc(O)c1 [m-Cresol] | Circulatory collapse, death (16)
